Consider ten molecules from ChEMBL document CHEMBL1201862, “PubChem BioAssay data set” (2004).

The structures appear in SMILES notation.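 Step 1: Grow cells in 96-well plates. Step 2: Expose to compound for 48 hours at 5 concentrations. Step 3: Interpolate endpoints linearly; if unreached, use highest concentration. Abbreviation: GI50, concentration required for 50% inhibition of growth.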 Activity calls are given as the source filed them. Rule as the data show it: active = GI50 up to about 1.1 µM and inactive = higher.

Among the test systems are SK-OV-3; SK-MEL-5; NCI-H522; HOP-62; PC-3; ACHN; MCF7; MOLT-4; DU-145; SW-620; NCI-H226; KM12; LOX IMVI; UO-31; SN12C; U-251; HL-60; IGROV-1; MDA-MB-231; OVCAR-8.
What all share (assay): inhibition of tumour cell growth, NCI panel, 48 h

Regarding `N#CCCN(CCC#N)c1ccc(/C=C2\SC(=S)NC2=O)cc1Br`, the GI50 is 28.6 µM (inactive) in the test with SK-OV-3; > 100 µM (inactive) in the test with SK-MEL-5; 76 µM (inactive) in the test with NCI-H522; 15.3 µM (inactive) in the test with HOP-62; > 100 µM (inactive) with PC-3; 67.9 µM (inactive) in the test on ACHN. In addition, the GI50 was > 100 µM (inactive) in the test with MCF7; > 100 µM (inactive) with MOLT-4; > 100 µM (inactive) in the test on DU-145; > 100 µM (inactive) with SW-620; > 100 µM (inactive) with NCI-H226; 66.7 µM (inactive) in the test with KM12. Besides, the GI50 with LOX IMVI was 23.1 µM (inactive); in the test on UO-31, > 100 µM (inactive); in the test with SN12C, > 100 µM (inactive); in the test with U-251, 17.3 µM (inactive); in the test with HL-60 it was 79.8 µM (inactive); with IGROV-1, 72.1 µM (inactive). The GI50 was 25.9 µM (inactive) with MDA-MB-231 and 68.5 µM (inactive) with OVCAR-8.
`O=[N+]([O-])c1ccc(N2CCC(CCCC3CCN(c4ccc([N+](=O)[O-])cc4[N+](=O)[O-])CC3)CC2)c([N+](=O)[O-])c1`: the GI50 in the test with SK-OV-3 is 18.5 µM (inactive); in the test on SK-MEL-5 it was 15.1 µM (inactive); in the test on NCI-H522, 18.2 µM (inactive); with HOP-62, 15.5 µM (inactive); in the test on PC-3 it was 15.8 µM (inactive); in the test with ACHN, 16.1 µM (inactive). Further, the GI50 in the test with MCF7 was 14.2 µM (inactive); with MOLT-4 it was 23.3 µM (inactive); with DU-145, 21.7 µM (inactive); in the test with SW-620, 19.9 µM (inactive); in the test on NCI-H226, 25.6 µM (inactive); in the test on KM12, 16.7 µM (inactive). Besides, the GI50 in the test on LOX IMVI is 14.8 µM (inactive); in the test on UO-31, 11.9 µM (inactive); with SN12C it was 32.1 µM (inactive); with U-251, 14.8 µM (inactive); in the test on HL-60, 15.4 µM (inactive); in the test on IGROV-1 it was 11.1 µM (inactive). Moreover, the GI50 with MDA-MB-231 is 18.7 µM (inactive); with OVCAR-8, 16.1 µM (inactive).
On to `COC(=O)C1([C@@H]2C[C@@H](O)[C@]3(C)CC/C=C(\C)CCC[C@H](C)[C@H](O)[C@@H]2O3)CC1`, for which the GI50 in the test on SK-OV-3 is > 100 µM (inactive); with SK-MEL-5, 39.4 µM (inactive); in the test on NCI-H522 it was 38.5 µM (inactive); in the test on HOP-62 it was 76.4 µM (inactive); in the test with PC-3 it was 31.8 µM (inactive); in the test with ACHN, 24.8 µM (inactive). Moreover, the GI50 in the test on MCF7 is 41.9 µM (inactive); with MOLT-4 it was 26.5 µM (inactive); in the test on DU-145, 66.8 µM (inactive); with SW-620, 95.9 µM (inactive); in the test with NCI-H226 it was 27.2 µM (inactive); in the test with KM12, 60.4 µM (inactive). The GI50 in the test on LOX IMVI was 61.4 µM (inactive); with UO-31 it was 23.8 µM (inactive); in the test on SN12C, > 100 µM (inactive); in the test on U-251, 71.9 µM (inactive); in the test on HL-60 it was > 100 µM (inactive); with IGROV-1 it was 37.3 µM (inactive). Further, the figures for the GI50 with MDA-MB-231 and in the test on OVCAR-8 were 90.2 µM (inactive) and 88.9 µM (inactive), respectively.
`COC(=O)c1c(O)ccc2c1c1c(n2Cc2ccccc2OC)C(=O)c2ccccc2C1=O`: the GI50 was 16.3 µM (inactive) with SK-OV-3; 13.1 µM (inactive) in the test on SK-MEL-5; 11 µM (inactive) with NCI-H522; 13.6 µM (inactive) in the test with HOP-62; 10.4 µM (inactive) with PC-3; 7.53 µM (inactive) in the test with ACHN. The GI50 with MCF7 was 6.34 µM (inactive); in the test with MOLT-4, 0.0393 µM (active); with DU-145, 13.3 µM (inactive); in the test with SW-620 it was 14.2 µM (inactive); in the test on NCI-H226, 15.3 µM (inactive); in the test with KM12 it was 9.75 µM (inactive). For the same molecule, the GI50 in the test on LOX IMVI is 10.6 µM (inactive); in the test with UO-31, 5.42 µM (inactive); in the test on SN12C it was 10 µM (inactive); in the test on U-251, 11 µM (inactive); in the test with HL-60, 2.04 µM (inactive); with IGROV-1, 12.6 µM (inactive). In addition, the GI50 in the test with MDA-MB-231 is 13.5 µM (inactive); in the test on OVCAR-8 it was 4.42 µM (inactive).
Regarding `COc1cc(CNc2nc3ccccc3nc2C(=O)O)cc(OC)c1OC`, the GI50 with SK-OV-3 was 69.8 µM (inactive); in the test with SK-MEL-5, 98.4 µM (inactive); with NCI-H522, 71.9 µM (inactive); in the test on HOP-62, > 100 µM (inactive); in the test with PC-3, > 100 µM (inactive); with ACHN, > 100 µM (inactive). Further, the GI50 is 81.1 µM (inactive) in the test with MCF7; > 100 µM (inactive) in the test on MOLT-4; > 100 µM (inactive) with DU-145; > 100 µM (inactive) in the test with SW-620; > 100 µM (inactive) with NCI-H226; > 100 µM (inactive) in the test on KM12. Further, the GI50 in the test with LOX IMVI is > 100 µM (inactive); in the test with UO-31, 49.2 µM (inactive); in the test on SN12C, 83 µM (inactive); in the test on U-251, > 100 µM (inactive); with HL-60, > 100 µM (inactive); with IGROV-1, > 100 µM (inactive). Also, the GI50 with MDA-MB-231 and in the test with OVCAR-8 was > 100 µM (inactive) throughout.
Take `CNC1C(O)CC(OC2C/C=C(\C)C/C(C)=C/C=C/CCC(C)CNC(=O)/C=C/C=C/C2C)OC1C` (stereo not given): the GI50 with SK-OV-3 was 1.15 µM (inactive); with SK-MEL-5, 0.811 µM (active); with NCI-H522, 0.973 µM (active); in the test with HOP-62 it was 1.03 µM (active); in the test on PC-3, 1.06 µM (active); in the test with ACHN, 1.5 µM (inactive). Also, the GI50 with MCF7 was 0.782 µM (active); in the test on MOLT-4 it was 0.161 µM (active); with DU-145, 0.719 µM (active); in the test on SW-620, 0.12 µM (active); in the test on NCI-H226, 2.77 µM (inactive); in the test on KM12, 0.432 µM (active). Further, the GI50 is 0.103 µM (active) in the test with LOX IMVI; 2.85 µM (inactive) in the test on UO-31; 0.82 µM (active) in the test on SN12C; 0.521 µM (active) in the test with U-251; 0.153 µM (active) in the test on HL-60; 1.29 µM (inactive) in the test with IGROV-1. For the same molecule, the GI50 in the test with MDA-MB-231 was 0.841 µM (active); in the test with OVCAR-8, 0.324 µM (active).
On to `CCC1(CC)C(=O)NN(C(=O)c2ccccc2)C1=O`, for which the GI50 with SK-OV-3, in the test on SK-MEL-5, with NCI-H522, in the test on HOP-62, with PC-3 and in the test with ACHN was > 100 µM (inactive) in each case. The GI50 with MCF7 was > 100 µM (inactive); in the test with MOLT-4, > 100 µM (inactive); in the test on DU-145 it was > 100 µM (inactive); with SW-620 it was > 100 µM (inactive); in the test on NCI-H226, > 100 µM (inactive); with KM12 it was 6.49 µM (inactive). Moreover, the GI50 in the test with LOX IMVI, in the test on UO-31, in the test with SN12C, in the test with U-251, with HL-60 and in the test with IGROV-1 was > 100 µM (inactive) each time. The GI50 in the test on MDA-MB-231 and in the test with OVCAR-8 was > 100 µM (inactive) each time.
`CN(C)c1ccc(C(=NNC(=O)c2cc3ccccc3[nH]2)c2ccc(N(C)C)cc2)cc1`: the GI50 in the test with SK-OV-3 is 1.62 µM (inactive); with SK-MEL-5, 0.407 µM (active); in the test on NCI-H522, 0.275 µM (active); with HOP-62, 1.77 µM (inactive); in the test with PC-3, 0.598 µM (active); in the test on ACHN it was 1.1 µM (active). The GI50 in the test with MCF7 was 0.245 µM (active); with MOLT-4 it was 0.293 µM (active); in the test on DU-145 it was 1.39 µM (inactive); in the test with SW-620, 0.299 µM (active); with NCI-H226, 35.8 µM (inactive); in the test on KM12, 0.33 µM (active). The GI50 with LOX IMVI was 0.811 µM (active); with UO-31, 0.942 µM (active); in the test on SN12C, 1.35 µM (inactive); in the test on U-251, 0.348 µM (active); in the test with HL-60 it was 0.26 µM (active); with IGROV-1 it was 0.395 µM (active). In addition, the GI50 in the test with MDA-MB-231 was 0.457 µM (active); in the test on OVCAR-8 it was 0.608 µM (active).
In the case of `COc1cc(OCc2ccc3nc(OC)c(OC)nc3c2)cc(OC)c1OC`, the GI50 is > 10 µM (inactive) in the test with SK-OV-3; > 10 µM (inactive) in the test with SK-MEL-5; > 10 µM (inactive) in the test with NCI-H522; > 10 µM (inactive) in the test with HOP-62; > 3.08 µM (inactive) with PC-3; > 10 µM (inactive) in the test on ACHN. Besides, the GI50 in the test on MCF7, in the test with MOLT-4, with DU-145, in the test with SW-620, in the test with NCI-H226 and in the test with KM12 was > 10 µM (inactive) in each case. Besides, the GI50 in the test with LOX IMVI, in the test on UO-31, with SN12C, with U-251, in the test with HL-60 and in the test on IGROV-1 was > 10 µM (inactive) throughout. Further, the GI50 in the test on MDA-MB-231 and in the test on OVCAR-8 was > 10 µM (inactive) in each case.
On to `Cc1ccc2ccc(O)cc2c1`, for which the GI50 in the test with SK-OV-3 was 26.9 µM (inactive); in the test on SK-MEL-5, 57.4 µM (inactive); in the test with NCI-H522, 19.9 µM (inactive); in the test with HOP-62, > 100 µM (inactive); with PC-3, 21.1 µM (inactive); in the test on ACHN it was 53.6 µM (inactive). The GI50 with MCF7 was 31.2 µM (inactive); in the test on MOLT-4, 22.6 µM (inactive); in the test on DU-145, 91.6 µM (inactive); in the test with SW-620 it was 37 µM (inactive); in the test on NCI-H226, 39.3 µM (inactive); in the test with KM12 it was 28.4 µM (inactive). Further, the GI50 in the test with LOX IMVI was 30.2 µM (inactive); with UO-31, 23 µM (inactive); in the test on SN12C, 94.6 µM (inactive); in the test on U-251, 23.1 µM (inactive); with HL-60 it was 18.5 µM (inactive); in the test on IGROV-1, 20.7 µM (inactive). The results for the GI50 in the test with MDA-MB-231 and in the test with OVCAR-8 were 30 µM (inactive) and 23.3 µM (inactive), respectively.
